Measured values as given in patent US9302999B2, “Substituted triazoles as herbicides” (E. I. DU PONT DE NEMOURS AND COMPANY, priority 2012, dated 2016).

Legend:
Format in all cases: in vivo
rice (Oryza sativa) = assay: Test C flooded paddy test: rice; settings: scale 0 to 100 (0 no effect, 100 complete control)
Procedure, shortened: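 Plants at 2-leaf stage in pots flooded 3 cm above soil; compounds applied directly into the paddy water, depth maintained. Visual rating against controls after 13–15 days in greenhouse, scale 0 (no effect) to 100 (complete control).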

[1] = system: field poppy (Papaver rhoeas); assay: Test D pre-/postemergence: field poppy
Procedure, shortened: (§1)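 Visual 0–100 rating versus untreated controls (0 no effect, 100 complete control), taken 14 to 21 days after treatment in a controlled growth environment. Preemergence: silt loam soil. Postemergence: peat moss/vermiculite medium, plants 2 to 18 cm, 1- to 4-leaf stage. Solvent mixture with surfactant.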

[2] = system: deadnettle (henbit deadnettle, Lamium amplexicaule); assay: Test D pre-/postemergence: deadnettle
Text: (§2) Seeds of plant species selected from bluegrass (annual bluegrass, Poa annua), blackgrass (Alopecurus myosuroides), canarygrass (Phalaris minor), chickweed (common chickweed, Stellaria media), galium (catchweed bedstraw, Galium aparine), bromegrass, downy (downy bromegrass, Bromus tectorum), field poppy (Papaver rhoeas), field violet (Viola arvensis), foxtail, green (green foxtail, Setaria viridis), deadnettle (henbit deadnettle, Lamium amplexicaule), ryegrass, Italian (Italian ryegrass, Lolium multiflorum), kochia (Kochia scoparia), lambsquarters (Chenopodium album), oilseed rape (Brassica napus), pigweed (Amaranthus retroflexus), Russian thistle (Salsola iberica), chamomile (scentless chamomile, Matricaria inodora), speedwell (bird's-eye speedwell, Veronica persica), barley, spring (spring barley, Hordeum vulgare), wheat, spring (spring wheat, Triticum aestivum), buckwheat, wild (wild buckwheat, Polygonum convolvulus), mustard, wild (wild mustard, Sinapis arvensis), oat, wild (wild oat, Avena fatua), radish, wild (wild radish, Raphanus raphanistrum), windgrass (Apera spica-venti), barley, winter (winter barley, Hordeum vulgare), and wheat, winter (winter wheat, Triticum aestivum) were planted into a silt loam soil and treated preemergence with test chemicals formulated in a non-phytotoxic solvent mixture which included a surfactant. At the same time, these same crop and weed species were planted in pots containing the planting medium comprising spaghnum peat moss, vermiculite, wetting agent and starter nutrients and treated with postemergence applications of the test chemicals formulated in the same manner. Plants ranged in height from 2 to 18 cm (1- to 4-leaf stage).
(§3) Treated plants and controls were maintained in a controlled growth environment for 14 to 21 days after which time all species were compared to controls and visually evaluated. Plant response ratings, summarized in Table D, are based on a scale of 0 to 100 where 0 is no effect and 100 is complete control. A dash (-) response means no test result.

[3] = system: ryegrass, Italian (Italian ryegrass, Lolium multiflorum); assay: Test D pre-/postemergence: ryegrass, Italian
Text: as §2, §3

kochia (Kochia scoparia) = assay: Test D pre-/postemergence: kochia
Procedure, shortened: as §1

[4] = system: buckwheat, wild (wild buckwheat, Polygonum convolvulus); assay: Test D pre-/postemergence: buckwheat, wild
Text: as §2, §3

[5] = Flood (flooded paddy test), 125 g ai/ha, visual rating after 13 to 15 days
[6] = Flood (flooded paddy test), 250 g ai/ha, visual rating after 13 to 15 days
[7] = Postemergence, 31 g ai/ha, scale 0 to 100 (0 no effect, 100 complete control)
[8] = Postemergence, 62 g ai/ha, scale 0 to 100 (0 no effect, 100 complete control)
[9] = Postemergence, 125 g ai/ha, scale 0 to 100, 0 no effect, 100 complete control
[10] = Postemergence, 250 g ai/ha, scale 0 to 100 (0 no effect, 100 complete control)
[11] = Postemergence, 16 g ai/ha, scale 0 to 100
[12] = Preemergence, 31 g ai/ha, scale 0 to 100, 0 no effect, 100 complete control
[13] = Preemergence, 62 g ai/ha, scale 0 to 100
[14] = Preemergence, 125 g ai/ha, scale 0 to 100
[15] = Preemergence, 250 g ai/ha, scale 0 to 100
[16] = Preemergence, 16 g ai/ha, scale 0 to 100, 0 no effect, 100 complete control

Q: Which results are given for `Cc1nn(-c2ccc(C(F)(F)F)cn2)nc1Cc1cccc(C(F)(F)F)c1` [Compound 106]?
A: Plant response rating, Rice (rice (Oryza sativa); [5]): 25; Plant response rating, Rice (rice (Oryza sativa); [6]): 30; Plant response rating, Rice (rice (Oryza sativa); Flood, 31 g ai/ha): 0; Plant response rating, Rice (rice (Oryza sativa); Flood, 62 g ai/ha): 0; Plant response rating: Field Poppy [1, 7]: 100; Plant response rating: Field Poppy [1, 8]: 100; Plant response rating: Field Poppy [1, 9]: 100; Plant response rating: Field Poppy [1, 10]: 100; Plant response rating, Field Poppy [1, 11]: 100; Plant response rating: Deadnettle [2, 7]: 30; Plant response rating: Deadnettle [2, 8]: 40; Plant response rating: Deadnettle [2, 9]: 60; Plant response rating: Deadnettle [2, 10]: 80; Plant response rating, Deadnettle [2, 11]: 20; Plant response rating, Deadnettle [2, 12]: 0; Plant response rating, Deadnettle [2, 13]: 0; Plant response rating, Deadnettle [2, 14]: 0; Plant response rating, Deadnettle [2, 15]: 0; Plant response rating: Ryegrass, Italian [3, 7]: 5; Plant response rating: Ryegrass, Italian [3, 8]: 5; Plant response rating: Ryegrass, Italian [3, 9]: 10; Plant response rating: Ryegrass, Italian [3, 10]: 20; Plant response rating, Ryegrass, Italian [3, 11]: 5; Plant response rating, Ryegrass, Italian [3, 12]: 0; Plant response rating, Ryegrass, Italian [3, 13]: 0; Plant response rating, Ryegrass, Italian [3, 14]: 0; Plant response rating, Ryegrass, Italian [3, 15]: 0; Plant response rating: Kochia (kochia (Kochia scoparia); [7]): 60; Plant response rating: Kochia (kochia (Kochia scoparia); [8]): 70; Plant response rating: Kochia (kochia (Kochia scoparia); [9]): 95; Plant response rating: Kochia (kochia (Kochia scoparia); [10]): 100; Plant response rating, Kochia (kochia (Kochia scoparia); [11]): 60; Plant response rating, Kochia (kochia (Kochia scoparia); [12]): 0; Plant response rating, Kochia (kochia (Kochia scoparia); [13]): 0; Plant response rating, Kochia (kochia (Kochia scoparia); [14]): 30; Plant response rating, Kochia (kochia (Kochia scoparia); [15]): 30; Plant response rating: Buckwheat, Wild [4, 7]: 0; Plant response rating: Buckwheat, Wild [4, 8]: 10; Plant response rating: Buckwheat, Wild [4, 9]: 10; Plant response rating: Buckwheat, Wild [4, 10]: 100; Plant response rating, Buckwheat, Wild [4, 11]: 0; Plant response rating, Buckwheat, Wild [4, 12]: 50; Plant response rating, Buckwheat, Wild [4, 13]: 100; Plant response rating, Buckwheat, Wild [4, 14]: 100; Plant response rating, Buckwheat, Wild [4, 15]: 100

Q: Which “Plant response rating, Rice” value (rice (Oryza sativa); [5]) does the source give for `Cc1nn(-c2ccc(C(F)(F)F)cc2)nc1Oc1ccnc(C(F)(F)F)c1` [Compound 120] here?
A: 70

Q: What about the “Plant response rating, Rice” value (rice (Oryza sativa); [6]) of the same compound?
A: 80

Q: What about the “Plant response rating, Rice” value (rice (Oryza sativa); Flood, 62 g ai/ha) of the same compound?
A: 60

Q: What about the “Plant response rating: Field Poppy” value [1, 7] of the same compound?
A: 100

Q: What about the “Plant response rating: Field Poppy” value [1, 8] of the same compound?
A: 100

Q: What about the “Plant response rating: Field Poppy” value [1, 9] of the same compound?
A: 100

Q: And the “Plant response rating: Field Poppy” value [1, 10]?
A: 100

Q: And the “Plant response rating, Field Poppy” value [1, 11]?
A: 100

Q: What about the “Plant response rating, Field Poppy” value [1, 16] of the same compound?
A: 0

Q: And the “Plant response rating, Field Poppy” value [1, 12]?
A: 80

Q: What about the “Plant response rating, Field Poppy” value [1, 13] of the same compound?
A: 80

Q: And the “Plant response rating, Field Poppy” value [1, 14]?
A: 100

Q: What about the “Plant response rating, Field Poppy” value [1, 15] of the same compound?
A: 100

Q: And the “Plant response rating: Deadnettle” value [2, 7]?
A: 90

Q: What about the “Plant response rating: Deadnettle” value [2, 8] of the same compound?
A: 90

Q: And the “Plant response rating: Deadnettle” value [2, 9]?
A: 100

Q: And the “Plant response rating: Deadnettle” value [2, 10]?
A: 100

Q: What about the “Plant response rating, Deadnettle” value [2, 11] of the same compound?
A: 30

Q: What about the “Plant response rating, Deadnettle” value [2, 16] of the same compound?
A: 0

Q: What about the “Plant response rating, Deadnettle” value [2, 12] of the same compound?
A: 85

Q: What about the “Plant response rating, Deadnettle” value [2, 13] of the same compound?
A: 100

Q: And the “Plant response rating, Deadnettle” value [2, 14]?
A: 100

Q: What about the “Plant response rating, Deadnettle” value [2, 15] of the same compound?
A: 100

Q: And the “Plant response rating: Ryegrass, Italian” value [3, 7]?
A: 5

Q: What about the “Plant response rating: Ryegrass, Italian” value [3, 8] of the same compound?
A: 10

Q: And the “Plant response rating: Ryegrass, Italian” value [3, 9]?
A: 15

Q: What about the “Plant response rating: Ryegrass, Italian” value [3, 10] of the same compound?
A: 30

Q: What about the “Plant response rating, Ryegrass, Italian” value [3, 11] of the same compound?
A: 5

Q: What about the “Plant response rating, Ryegrass, Italian” value [3, 16] of the same compound?
A: 0

Q: And the “Plant response rating, Ryegrass, Italian” value [3, 12]?
A: 5

Q: What about the “Plant response rating, Ryegrass, Italian” value [3, 13] of the same compound?
A: 40

Q: What about the “Plant response rating, Ryegrass, Italian” value [3, 14] of the same compound?
A: 80

Q: And the “Plant response rating, Ryegrass, Italian” value [3, 15]?
A: 100

Q: What about the “Plant response rating: Kochia” value (kochia (Kochia scoparia); [7]) of the same compound?
A: 98

Q: What about the “Plant response rating: Kochia” value (kochia (Kochia scoparia); [8]) of the same compound?
A: 100

Q: And the “Plant response rating: Kochia” value (kochia (Kochia scoparia); [9])?
A: 100

Q: And the “Plant response rating: Kochia” value (kochia (Kochia scoparia); [10])?
A: 100

Q: And the “Plant response rating, Kochia” value (kochia (Kochia scoparia); [11])?
A: 98

Q: What about the “Plant response rating, Kochia” value (kochia (Kochia scoparia); [16]) of the same compound?
A: 0

Q: And the “Plant response rating, Kochia” value (kochia (Kochia scoparia); [12])?
A: 10

Q: What about the “Plant response rating, Kochia” value (kochia (Kochia scoparia); [13]) of the same compound?
A: 30

Q: And the “Plant response rating, Kochia” value (kochia (Kochia scoparia); [14])?
A: 95

Q: And the “Plant response rating, Kochia” value (kochia (Kochia scoparia); [15])?
A: 100

Q: What about the “Plant response rating: Buckwheat, Wild” value [4, 7] of the same compound?
A: 75

Q: And the “Plant response rating: Buckwheat, Wild” value [4, 8]?
A: 85

Q: And the “Plant response rating: Buckwheat, Wild” value [4, 9]?
A: 95

Q: What about the “Plant response rating: Buckwheat, Wild” value [4, 10] of the same compound?
A: 98

Q: And the “Plant response rating, Buckwheat, Wild” value [4, 11]?
A: 50

Q: What about the “Plant response rating, Buckwheat, Wild” value [4, 13] of the same compound?
A: 10

Q: And the “Plant response rating, Buckwheat, Wild” value [4, 14]?
A: 70

Q: And the “Plant response rating, Buckwheat, Wild” value [4, 15]?
A: 100
